“Also recorded” adds a separate entry of the source.
Key:
SUT-1 = target: T1, SUT-1 (Homo sapiens, UniProt Q9UKG4); conditions: cited from earlier work
T1 sequence (Q9UKG4 1-626): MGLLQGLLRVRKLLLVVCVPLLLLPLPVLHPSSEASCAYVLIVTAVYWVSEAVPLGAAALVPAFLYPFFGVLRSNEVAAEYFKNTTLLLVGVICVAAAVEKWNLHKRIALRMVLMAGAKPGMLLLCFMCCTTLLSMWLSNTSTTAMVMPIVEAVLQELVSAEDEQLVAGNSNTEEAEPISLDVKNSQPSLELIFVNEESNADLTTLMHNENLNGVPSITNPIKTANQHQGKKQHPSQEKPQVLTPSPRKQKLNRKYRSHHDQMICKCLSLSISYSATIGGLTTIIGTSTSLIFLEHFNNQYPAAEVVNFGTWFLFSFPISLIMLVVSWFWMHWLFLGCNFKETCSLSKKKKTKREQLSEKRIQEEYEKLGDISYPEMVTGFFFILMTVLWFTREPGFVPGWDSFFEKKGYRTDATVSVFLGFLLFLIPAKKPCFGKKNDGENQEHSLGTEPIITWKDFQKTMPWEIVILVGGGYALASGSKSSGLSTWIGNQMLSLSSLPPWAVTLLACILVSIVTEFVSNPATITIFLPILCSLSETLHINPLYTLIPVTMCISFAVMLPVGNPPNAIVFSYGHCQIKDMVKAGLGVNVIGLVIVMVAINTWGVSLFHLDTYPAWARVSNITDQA

SAT-1 = target: T2, SAT-1 (Rattus norvegicus, UniProt P45380); conditions: rat hepatocytes; cited from earlier work
T2 sequence (P45380 1-703): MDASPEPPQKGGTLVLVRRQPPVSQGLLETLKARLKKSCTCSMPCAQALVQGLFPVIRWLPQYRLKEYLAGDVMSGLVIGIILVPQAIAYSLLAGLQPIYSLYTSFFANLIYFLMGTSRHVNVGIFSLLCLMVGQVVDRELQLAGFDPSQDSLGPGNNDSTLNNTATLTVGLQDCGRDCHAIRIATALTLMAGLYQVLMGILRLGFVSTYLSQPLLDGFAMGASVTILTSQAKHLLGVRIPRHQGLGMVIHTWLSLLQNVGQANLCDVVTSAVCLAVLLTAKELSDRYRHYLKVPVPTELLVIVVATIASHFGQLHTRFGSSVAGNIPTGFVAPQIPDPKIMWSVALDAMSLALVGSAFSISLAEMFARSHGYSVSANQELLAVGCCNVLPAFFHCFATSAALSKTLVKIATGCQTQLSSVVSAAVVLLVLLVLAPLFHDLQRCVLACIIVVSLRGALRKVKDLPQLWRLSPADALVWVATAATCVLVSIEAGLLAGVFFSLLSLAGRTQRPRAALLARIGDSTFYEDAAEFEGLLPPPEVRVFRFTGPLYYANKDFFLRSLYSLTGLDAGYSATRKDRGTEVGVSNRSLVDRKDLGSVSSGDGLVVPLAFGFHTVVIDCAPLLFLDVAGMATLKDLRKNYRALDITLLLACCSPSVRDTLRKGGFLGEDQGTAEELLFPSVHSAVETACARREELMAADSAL

DTD = target: T3, DTD (Homo sapiens, UniProt P50443); conditions: cited from earlier work
T3 sequence (P50443 1-739): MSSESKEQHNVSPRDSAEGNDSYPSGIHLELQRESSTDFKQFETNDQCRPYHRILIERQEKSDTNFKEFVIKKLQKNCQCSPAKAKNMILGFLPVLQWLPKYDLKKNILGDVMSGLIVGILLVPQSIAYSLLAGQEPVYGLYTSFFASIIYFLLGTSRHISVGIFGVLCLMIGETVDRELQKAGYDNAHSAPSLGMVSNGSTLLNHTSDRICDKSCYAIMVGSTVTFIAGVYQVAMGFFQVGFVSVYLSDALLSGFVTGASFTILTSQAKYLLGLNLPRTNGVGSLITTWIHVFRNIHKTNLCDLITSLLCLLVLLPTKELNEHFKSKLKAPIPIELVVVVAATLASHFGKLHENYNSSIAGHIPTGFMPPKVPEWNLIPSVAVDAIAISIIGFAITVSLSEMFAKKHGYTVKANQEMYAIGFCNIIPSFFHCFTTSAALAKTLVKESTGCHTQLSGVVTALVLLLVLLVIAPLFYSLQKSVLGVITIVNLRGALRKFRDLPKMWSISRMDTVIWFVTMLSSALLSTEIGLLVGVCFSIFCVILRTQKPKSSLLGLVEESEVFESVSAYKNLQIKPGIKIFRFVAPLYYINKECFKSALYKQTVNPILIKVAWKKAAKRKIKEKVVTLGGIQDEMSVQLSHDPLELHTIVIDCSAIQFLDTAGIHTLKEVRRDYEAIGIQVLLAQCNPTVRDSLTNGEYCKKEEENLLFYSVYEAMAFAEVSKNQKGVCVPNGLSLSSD

DRA = target: T4, DRA (Homo sapiens, UniProt P40879); conditions: cited from earlier work
T4 sequence (P40879 1-764): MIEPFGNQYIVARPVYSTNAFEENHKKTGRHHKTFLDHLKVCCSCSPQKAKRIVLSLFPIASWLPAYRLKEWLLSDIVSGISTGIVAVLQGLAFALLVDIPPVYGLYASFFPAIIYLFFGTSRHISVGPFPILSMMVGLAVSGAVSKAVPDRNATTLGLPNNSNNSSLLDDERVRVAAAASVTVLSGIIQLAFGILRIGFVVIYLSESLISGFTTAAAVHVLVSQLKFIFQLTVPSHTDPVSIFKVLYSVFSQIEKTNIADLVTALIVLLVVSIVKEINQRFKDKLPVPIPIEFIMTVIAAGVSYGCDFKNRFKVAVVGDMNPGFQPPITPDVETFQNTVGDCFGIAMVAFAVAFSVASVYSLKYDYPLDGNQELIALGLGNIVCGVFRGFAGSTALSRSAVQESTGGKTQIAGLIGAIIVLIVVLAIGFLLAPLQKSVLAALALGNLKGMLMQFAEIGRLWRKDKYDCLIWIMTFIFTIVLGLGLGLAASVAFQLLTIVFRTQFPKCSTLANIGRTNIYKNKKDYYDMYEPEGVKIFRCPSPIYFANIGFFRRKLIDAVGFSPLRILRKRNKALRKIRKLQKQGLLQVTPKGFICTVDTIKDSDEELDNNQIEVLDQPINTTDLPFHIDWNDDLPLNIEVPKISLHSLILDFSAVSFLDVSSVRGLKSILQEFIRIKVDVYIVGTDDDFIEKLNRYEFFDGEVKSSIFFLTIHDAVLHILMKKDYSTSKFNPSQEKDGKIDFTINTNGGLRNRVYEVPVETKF

NaSi-1 = target: T5, NaSi-1 (Rattus norvegicus, UniProt Q07782); conditions: rat kidney and small intestine; cited from earlier work
T5 sequence (Q07782 1-595): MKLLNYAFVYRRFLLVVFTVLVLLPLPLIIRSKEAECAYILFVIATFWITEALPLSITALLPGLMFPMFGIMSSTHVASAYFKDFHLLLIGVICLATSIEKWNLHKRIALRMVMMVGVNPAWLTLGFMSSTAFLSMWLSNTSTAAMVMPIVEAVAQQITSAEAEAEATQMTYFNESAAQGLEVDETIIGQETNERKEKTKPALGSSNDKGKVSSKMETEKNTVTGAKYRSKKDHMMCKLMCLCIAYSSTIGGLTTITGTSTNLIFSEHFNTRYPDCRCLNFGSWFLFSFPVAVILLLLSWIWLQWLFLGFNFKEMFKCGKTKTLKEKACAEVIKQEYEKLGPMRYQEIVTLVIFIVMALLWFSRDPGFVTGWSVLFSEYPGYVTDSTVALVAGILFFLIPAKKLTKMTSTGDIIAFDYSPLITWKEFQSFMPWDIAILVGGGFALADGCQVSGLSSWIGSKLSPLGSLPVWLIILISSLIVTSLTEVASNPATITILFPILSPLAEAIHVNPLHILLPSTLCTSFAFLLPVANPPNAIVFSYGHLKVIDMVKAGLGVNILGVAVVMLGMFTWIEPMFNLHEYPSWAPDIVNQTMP

SUT-3 = target: T6, SUT-3 (Homo sapiens, UniProt Q86WA9); assay: Sulfate uptake by Sf9 insect cells infected with baculovirus expressing SUT-3; type: cell-based; conditions: 1 mM DIDS; uptake of 500 μM Na2SO4; Sf9 cells infected at MOI of 5
T6 construct: The full length SLC26A11 ORF was PCR amplified from IMAGE clone; expressed in transfected cells; host or cells: Sf9 insect cells infected with recombinant baculovirus (pVL1393-SUT-3, polyhedrin promoter)
T6 sequence (Q86WA9 1-606): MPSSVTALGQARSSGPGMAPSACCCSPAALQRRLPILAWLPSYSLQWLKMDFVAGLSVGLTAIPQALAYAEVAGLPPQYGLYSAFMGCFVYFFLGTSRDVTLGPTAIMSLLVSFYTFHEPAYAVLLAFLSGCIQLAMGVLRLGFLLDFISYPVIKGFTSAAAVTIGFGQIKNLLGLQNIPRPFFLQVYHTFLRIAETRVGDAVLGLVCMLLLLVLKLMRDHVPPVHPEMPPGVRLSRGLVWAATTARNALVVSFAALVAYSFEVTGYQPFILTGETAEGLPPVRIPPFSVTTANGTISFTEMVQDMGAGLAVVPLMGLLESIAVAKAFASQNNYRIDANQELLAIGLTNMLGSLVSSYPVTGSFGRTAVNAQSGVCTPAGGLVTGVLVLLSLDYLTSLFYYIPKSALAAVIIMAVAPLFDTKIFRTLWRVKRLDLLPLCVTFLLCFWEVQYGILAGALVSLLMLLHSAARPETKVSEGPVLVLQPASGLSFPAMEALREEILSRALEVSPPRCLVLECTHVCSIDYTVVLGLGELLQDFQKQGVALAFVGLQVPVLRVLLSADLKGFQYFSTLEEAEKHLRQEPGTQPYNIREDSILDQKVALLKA
Protocol: The full length SLC26A11 ORF was PCR amplified from IMAGE clone N^o 4793646, with 10 pmol of primers ATG-SUT-3 (5′-[…]) (SEQ ID NO: 21) and STOP-SUT-3 (5′-[…]-3′)(SEQ ID NO: 22), using 3 units of Pfu (Promega) in its reaction buffer with 400 μM dNTP. PCR cycles were 30×(94° C., 1′, 60° C., 1′, 72° C., 4′). The PCR product was then phosphorylated at its 5′ extremities using 2 units of T4 Polynucleotide Kinase (PROMEGA). 2 μg of pVL1393 vector (BD Biosciences) were digested with 10 units of EcoRI and NotI endonucleases, extremities were blunt-ended with 10 units of T4 DNA polymerase (PROMEGA) and 5′ extremities were dephosphated with 1 unit of Calf Intestine Phosphatase (Boehringer). 100 ng of purified insert and vector were then ligated together using 1 unit of T4 DNA Ligase (Biolabs). All enzymes were used according to supplier's instructions. After restriction analysis, DNA sequencing was performed using the Big Dye Sequencing Kit (Perkin Elmer) according to manufacturer's protocol. […]
For all experiments, 80 cm^2 flasks containing 60% confluent Sf9 cells were infected at a MOI of 5 and incubated for 3 days at 27° C. for protein expression. […] Protein concentration was evaluated using the BIO-RAD protein Assay Kit according to the manufacturer's protocol and cell-associated radioactivity was determined in a Tri-Carb 2100 liquid scintillation counter (Packard). […]

selectins = conditions: cited from earlier work

Row | SMILES | sensitivity of SUT-1 sulfate transport to DIDS (SUT-1) | sensitivity of SAT-1 sulfate transport to DIDS (SAT-1) | sensitivity of DTD to DIDS (DTD) | sensitivity of DRA to DIDS (DRA) | sensitivity of NaSi-1 sulfate transport to DIDS (NaSi-1) | inhibition of SUT-3-mediated sulfate uptake (SUT-3) | endothelial expression of selectins (selectins)
1 | O=S(=O)(O)c1cc(N=C=S)ccc1C=Cc1ccc(N=C=S)cc1S(=O)(=O)O [DIDS, 4,4′-diisothiocyanostilbene-2,2′-disulfonic acid] | resistant | sensitive | sensitive | sensitive | resistant | sensitive; also recorded: efficiently inhibited | 
2 | COc1cc2c(c(OC)c1OC)-c1ccc(OC)c(=O)cc1[C@@H](NC(C)=O)CC2 [colchicine] |  |  |  |  |  |  | downregulate

From patent US20030086872A1, “SUT-2 and SUT-3 genes, proteins and assays for inhibitors of lymphocyte adhesion” (priority 2001, published 2003)
